Literature values in patent publication US20030170332A1, “Flavonoid extract” (Enzo Nutraceuticals Limited., priority 2001, published 2003).

Experiments:
DNA damage = details: for Protection against DNA damage: in vivo (Duthie et al. 1997; Sierens et al. 2001)
[1] = tested on: carbonyl levels of immunoglobulin

SMILES | Protection against DNA damage (DNA damage) | DNA protection on increasing intake in the diet (DNA damage; in vivo (Beatty et al. 2000)) | Effect on protein oxidation of immunoglobulin ([1]; 5 weeks supplementation, 400 mg/day) | Carbonyl levels of immunoglobulin ([1]; 10 and 15 weeks supplementation, subjects with low baseline ascorbate, not in those with normal base line ascorbate)
Oc1ccc([C@H]2COc3cc(O)ccc3C2)cc1 [equol] | did protect against DNA damage |  |  | 
O=c1c(-c2ccc(O)cc2)coc2cc(O)cc(O)c12 [genistein] | did protect against DNA damage |  |  | 
O=c1c(O)c(-c2cc(O)c(O)c(O)c2)oc2cc(O)cc(O)c12 [myricetin] | did protect against DNA damage |  |  | 
O=c1c(O)c(-c2ccc(O)c(O)c2)oc2cc(O)cc(O)c12 [quercetin] | did protect against DNA damage | did not result in increased DNA protection |  | 
O=C1O[C@H]([C@@H](O)CO)C(O)=C1O [vitamin C] |  |  | no significant effect | significantly reduced
